Key:
Assay in all cases: combination Emax (second highest fraction inhibited in the dose matrix, 72 h); higher = more inhibition; extreme values may be limits of the assay
IST-MES1 (Mesothelioma) = system: IST-MES1 (Mesothelioma)
Method in brief: (§1)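 After 24 hours at 37°C and 5% CO2 in 1536-well plates, cells in DMEM/F12 or RPMI plus 10% FBS received two-drug dose matrices for 72 hours. Viability came from CellTiter-Glo 2.0 luminescence and was scaled as inhibition, anchored at 0 by vehicle wells and at 1 by blank wells. Combination Emax is taken as the second-highest inhibition in the matrix, and Bliss excess as the observed combination effect less EA + EB − EA·EB, with EA and EB the single-agent effects.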

[1] = system: TE-8 (Esophageal Squamous Cell Carcinoma)
Method in brief: as §1

[2] = system: HEC-1 (Endometrial Carcinoma)
Method in brief: as §1

[3] = system: OVMIU (Ovarian Carcinoma)
Method in brief: as §1

[4] = system: L-1236 (Hodgkin's Lymphoma)
Method in brief: as §1

[5] = system: MFE-280 (Endometrial Carcinoma)
Method in brief: as §1

[6] = system: VAL (B-Cell Non-Hodgkin's Lymphoma)
Method in brief: as §1

[7] = system: NCI-H446 (Small Cell Lung Carcinoma)
Method in brief: as §1

[8] = system: PANC-03-27 (Pancreatic Carcinoma)
Method in brief: as §1

LN-229 (Glioblastoma) = system: LN-229 (Glioblastoma)
Method in brief: as §1

GB-1 (Glioblastoma) = system: GB-1 (Glioblastoma)
Method in brief: as §1

SF539 (Glioblastoma) = system: SF539 (Glioblastoma)
Method in brief: as §1

SF268 (Low Grade Glioma) = system: SF268 (Low Grade Glioma)
Method in brief: as §1

[9] = system: LXF-289 (Lung Adenocarcinoma)
Method in brief: as §1

[10] = system: CAL-62 (Thyroid Gland Carcinoma)
Method in brief: as §1

[11] = system: LK-2 (Squamous Cell Lung Carcinoma)
Method in brief: as §1

[12] = system: KE-37 (T-Lymphoblastic Leukemia)
Method in brief: as §1

[13] = system: OPM-2 (Plasma Cell Myeloma)
Method in brief: as §1

[14] = system: GP5d (Colorectal Carcinoma)
Method in brief: as §1

[15] = system: SK-PN-DW (Other Solid Carcinomas)
Method in brief: as §1

SMILES	combination Emax (IST-MES1 (Mesothelioma))	combination Emax [1]	combination Emax [2]	combination Emax [3]	combination Emax [4]	combination Emax [5]	combination Emax [6]	combination Emax [7]	combination Emax [8]	combination Emax (LN-229 (Glioblastoma))	combination Emax (GB-1 (Glioblastoma))	combination Emax (SF539 (Glioblastoma))	combination Emax (SF268 (Low Grade Glioma))	combination Emax [9]	combination Emax [10]	combination Emax [11]	combination Emax [12]	combination Emax [13]	combination Emax [14]	combination Emax [15]
COc1cccc(OCCCN)c1-c1cc(Nc2cnc(C#N)cn2)n[nH]1 [Prexasertib] + CN(C)CCCOc1ccc(-c2ccc3ncc4c(c3c2)n(C2CCOCC2)c(=O)n4C)cn1 [AZD0156] (first compound max 1 µM, 7x7, partner max 1 µM)	0.218	0.914	0.655	0.684	0.792	0.441	0.924	0.982	0.902	0.725	0.485	0.963	0.493	0.772	0.735	0.726	1	0.936	0.983	0.948
COc1cccc(OCCCN)c1-c1cc(Nc2cnc(C#N)cn2)n[nH]1 [Prexasertib] + C[C@@H]1COCCN1C2=NC(=NC(=C2)C3(CC3)[S@](=N)(=O)C)C4=C5C=CNC5=NC=C4 [AZD6738] (first compound max 1 µM, 7x7, partner max 10 µM)	0.278	0.933	0.74	0.596	0.799	0.398	0.952	0.975	0.902	0.791	0.691	0.972	0.514	0.762	0.785	0.689	1	0.909	0.967	0.937
COc1cccc(OCCCN)c1-c1cc(Nc2cnc(C#N)cn2)n[nH]1 [Prexasertib] + Cc1cc2ncnn2cc1Nc1ncc2c(n1)n(C1CCOCC1)c(=O)n2C [AZD7648] (first compound max 1 µM, 7x7, partner max 10 µM)	0.355	0.937	0.53	0.624	0.776	0.405	0.932	0.97	0.898	0.725	0.458	0.985	0.48	0.724	0.776	0.755	1	0.912	0.964	0.931
COc1cccc(OCCCN)c1-c1cc(Nc2cnc(C#N)cn2)n[nH]1 [Prexasertib] + O=C(c1cc(Cc2n[nH]c(=O)c3ccccc23)ccc1F)N1CCN(C(=O)C2CC2)CC1 [Olaparib] (first compound max 1 µM, 7x7, partner max 10 µM)	0.283	0.902	0.416	0.592	0.831	0.416	0.93	0.963	0.918	0.551	0.439	1	0.623	0.783	0.779	0.799	1	0.943	0.945	0.937
COc1cc2c(cc1OCCCCCOc1cc3c(cc1OC)C(=O)N1C=C(C)C[C@H]1C=N3)N=C[C@@H]1CC(C)=CN1C2=O [SG3199] + O=C(c1cc(Cc2n[nH]c(=O)c3ccccc23)ccc1F)N1CCN(C(=O)C2CC2)CC1 [Olaparib] (first compound max 0.001 µM, 7x7, partner max 10 µM)	0.218	0.109	0.176	0.0896	0.196	0.184	0.57	0.285	0.0754	0.0777	0.141	0.268	0.115	0.119	0.102	0.28	0.348	0.0651	0.189	0.393
CCc1c2c(nc3ccc(O)cc13)-c1cc3c(c(=O)n1C2)COC(=O)[C@]3(O)CC [SN-38] + CN(C)CCCOc1ccc(-c2ccc3ncc4c(c3c2)n(C2CCOCC2)c(=O)n4C)cn1 [AZD0156] (first compound max 0.3 µM, 7x7, partner max 1 µM)	0.875	0.69	0.398	0.32	0.76	0.611	0.944	0.818	0.773	0.283	0.735	0.895	0.902	0.599	0.872	0.584	1	0.772	0.655	0.92

— the supplement of paper PMC11061612
